# Test results from patent US20200405696A1, “INHIBITORS OF INDOLEAMINE 2,3-DIOXYGENASE AND/OR TRYPTOPHAN 2,3-DIOXYGENASE” (IDORSIA PHARMACEUTICALS LTD, priority 2018, published 2020).
# Legend:
# [1] = biological target: T1, Recombinant full-length human IDO1 (Homo sapiens, UniProt P14902); assay: IDO1 enzymatic assay (NFK quantified by LCMS); format: biochemical; conditions: 2 nM enzyme, 5 μM L-tryptophan, pH6.5, 30 minutes pre-incubation at RT; mean values when measured multiple times; read-out: hIDO activity (IC50 in nM)
# T1 construct: Recombinant full-length human IDO1 with a N-terminal hexahistidine tag; hexahistidine (His6) (N); made in house; host or cells: E. coli
# Procedure, shortened: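 IC50 comes from four-parameter logistic fits of duplicate data, with NFK quantified by LCMS and normalized to L-Trp-(indole-d5). Compound (0.5 nM–10 μM) was preincubated 30 min at RT with 2 nM E. coli-expressed IDO1 before a 30 min reaction with 5 μM tryptophan in pH 6.5 buffer containing ascorbate and methylene blue.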
# [2] = biological target: T2, Recombinant human TDO comprising amino acids 19-407 (Homo sapiens, UniProt P48775); assay: TDO2 enzymatic assay (NFK quantified by LCMS); format: biochemical; conditions: 15 nM enzyme, 200 μM L-tryptophan, pH7, 30 minutes pre-incubation at RT; mean values when measured multiple times; read-out: hTDO activity (IC50 in nM)
# T2 construct: Recombinant human TDO comprising amino acids 19-407 with a N-terminal hexahistidine tag; hexahistidine (His6) (N); made in house; host or cells: E. coli
# Procedure, shortened: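 NFK formed over 30 min at RT from 200 μM L-tryptophan was measured by LCMS, normalized to d5-tryptophan, after compound (0.5 nM–10 μM, duplicates, 0.6% DMSO) was preincubated 30 min with 15 nM recombinant His-tagged TDO 19-407 in phosphate buffer pH 7. IC50 from four-parameter logistic fit; repeats averaged.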
# T2 sequence (P48775 19-406 limits assumed): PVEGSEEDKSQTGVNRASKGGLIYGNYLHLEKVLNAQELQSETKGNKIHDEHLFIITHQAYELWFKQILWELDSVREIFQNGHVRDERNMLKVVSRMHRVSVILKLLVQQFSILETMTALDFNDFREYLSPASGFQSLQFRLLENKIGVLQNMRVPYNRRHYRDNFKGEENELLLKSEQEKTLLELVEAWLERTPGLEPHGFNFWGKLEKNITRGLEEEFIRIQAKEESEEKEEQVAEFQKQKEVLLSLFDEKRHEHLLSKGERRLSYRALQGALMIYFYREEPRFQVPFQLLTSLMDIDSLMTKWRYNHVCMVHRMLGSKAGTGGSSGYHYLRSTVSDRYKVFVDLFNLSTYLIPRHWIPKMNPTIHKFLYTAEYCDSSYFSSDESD
# T1 sequence (P14902 whole entry): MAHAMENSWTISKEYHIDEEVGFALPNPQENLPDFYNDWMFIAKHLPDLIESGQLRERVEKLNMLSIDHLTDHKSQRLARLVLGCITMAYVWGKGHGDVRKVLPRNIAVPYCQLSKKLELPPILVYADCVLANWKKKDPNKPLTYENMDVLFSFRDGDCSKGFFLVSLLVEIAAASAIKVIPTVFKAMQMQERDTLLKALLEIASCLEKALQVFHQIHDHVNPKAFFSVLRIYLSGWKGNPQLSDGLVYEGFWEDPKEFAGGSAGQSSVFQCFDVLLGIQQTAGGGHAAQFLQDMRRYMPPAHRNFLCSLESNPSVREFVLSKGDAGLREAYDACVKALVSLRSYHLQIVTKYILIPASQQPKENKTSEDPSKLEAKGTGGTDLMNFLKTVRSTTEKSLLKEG
SMILES,IC50 [1] [nM],IC50 [2] [nM]
"CCOc1ncc(-n2cc(C(O)c3c(C4CC4)sc4cncn34)nn2)cn1 (racemic) [Example 65, rac-(2-Cyclopropyl-imidazo[5,1-b]thiazol-3-yl)-[1-(2-ethoxy-pyrimidin-5-yl)-1H-[1,2,3]triazol-4-yl]-methanol]",14.2,> 10200
"COc1ccc(-n2cc(C(O)c3c(C4CC4)sc4cncn34)nn2)nc1OC (racemic) [Example 66, rac-(2-Cyclopropyl-imidazo[5,1-b]thiazol-3-yl)-[1-(5,6-dimethoxy-pyridin-2-yl)-1H-[1,2,3]triazol-4-yl]-methanol]",200,> 10200
"COc1ncc(-n2cc(C(O)c3c(C4CC4)sc4cncn34)nn2)cn1 (racemic) [Example 67, rac-(2-Cyclopropyl-imidazo[5,1-b]thiazol-3-yl)-[1-(2-methoxy-pyrimidin-5-yl)-1H-[1,2,3]triazol-4-yl]-methanol]",50.2,9160
"Oc1ccc(-n2cc(C(O)c3c(C4CC4)sc4cncn34)nn2)cc1 (racemic) [Example 68, rac-4-{4-[(2-Cyclopropyl-imidazo[5,1-b]thiazol-3-yl)-hydroxy-methyl]-[1,2,3]triazol-1-yl}-phenol]",8.08,> 10200
"COc1ccc(-n2cc(C(O)c3c(C4CC4)sc4cncn34)nn2)cn1 (racemic) [Example 69, rac-(2-Cyclopropyl-imidazo[5,1-b]thiazol-3-yl)-[1-(6-methoxy-pyridin-3-yl)-1H-[1,2,3]triazol-4-yl]-methanol]",22.7,> 10200
"COC(=O)c1cc(-n2cc(C(O)c3c(C4CC4)sc4cncn34)nn2)cnc1OC (racemic) [Example 70, rac-5-{4-[(2-Cyclopropyl-imidazo[5,1-b]thiazol-3-yl)-hydroxy-methyl]-[1,2,3]triazol-1-yl}-2-methoxy-nicotinic acid methyl ester]",201,> 10200
"COc1ncc(-n2cc(C(O)c3c(C4CC4)sc4cncn34)nn2)cc1C (racemic) [Example 71, rac-(2-Cyclopropyl-imidazo[5,1-b]thiazol-3-yl)-[1-(6-methoxy-5-methyl-pyridin-3-yl)-1H-[1,2,3]triazol-4-yl]-methanol]",55.9,> 10200
"OC(c1cn(-c2cnc3c(c2)CCCO3)nn1)c1c(C2CC2)sc2cncn12 (racemic) [Example 72, rac-(2-Cyclopropyl-imidazo[5,1-b]thiazol-3-yl)-[1-(3,4-dihydro-2H-pyrano[2,3-b]pyridin-6-yl)-1H-[1,2,3]triazol-4-yl]-methanol]",35.5,> 10200
"CC(C)Oc1ncc(-n2cc(C(O)c3c(C4CC4)sc4cncn34)nn2)cc1Cl (racemic) [Example 73, rac-[1-(5-Chloro-6-isopropoxy-pyridin-3-yl)-1H-[1,2,3]triazol-4-yl]-(2-cyclopropyl-imidazo[5,1-b]thiazol-3-yl)-methanol]",36.1,> 10200
"CCOc1ncc(-n2cc(C(O)c3c(C4CC4)sc4cncn34)nn2)cc1Cl (racemic) [Example 74, rac-[1-(5-Chloro-6-ethoxy-pyridin-3-yl)-1H-[1,2,3]triazol-4-yl]-(2-cyclopropyl-imidazo[5,1-b]thiazol-3-yl)-methanol]",24.3,> 10200
"COC(=O)COc1ccc(-n2cc(C(O)c3c(C4CC4)sc4cncn34)nn2)cn1 (racemic) [Example 75, rac-(5-{4-[(2-Cyclopropyl-imidazo[5,1-b]thiazol-3-yl)-hydroxy-methyl]-[1,2,3]triazol-1-yl}-pyridin-2-yloxy)-acetic acid methyl ester]",40.7,> 10200
"CCOc1ncc(-n2cc(C(O)c3c(C4CC4)sc4cncn34)nn2)cc1C(F)(F)F (racemic) [Example 76, rac-(2-Cyclopropyl-imidazo[5,1-b]thiazol-3-yl)-[1-(6-ethoxy-5-trifluoromethyl-pyridin-3-yl)-1H-[1,2,3]triazol-4-yl]-methanol]",363,> 10200
"OC(c1cn(-c2ccc(OCc3ccccc3)nc2)nn1)c1c(C2CC2)sc2cncn12 (racemic) [Example 77, rac-[1-(6-Benzyloxy-pyridin-3-yl)-1H-[1,2,3]triazol-4-yl]-(2-cyclopropyl-imidazo[5,1-b]thiazol-3-yl)-methanol]",32.7,> 10200
"OC(c1cn(-c2ccc(OCC(F)(F)F)nc2)nn1)c1c(C2CC2)sc2cncn12 (racemic) [Example 78, rac-(2-Cyclopropyl-imidazo[5,1-b]thiazol-3-yl)-{1-[6-(2,2,2-trifluoro-ethoxy)-pyridin-3-yl]-1H-[1,2,3]triazol-4-yl}-methanol]",17.4,> 10200
"COc1ncc(-n2cc(C(O)c3c(C4CC4)sc4cncn34)nn2)cc1F (racemic) [Example 79, rac-(2-Cyclopropyl-imidazo[5,1-b]thiazol-3-yl)-[1-(5-fluoro-6-methoxy-pyridin-3-yl)-1H-[1,2,3]triazol-4-yl]-methanol]",7.22,> 10200
"COc1cc(-n2cc(C(O)c3c(C4CC4)sc4cncn34)nn2)cnc1OC (racemic) [Example 80, rac-(2-Cyclopropyl-imidazo[5,1-b]thiazol-3-yl)-[1-(5,6-dimethoxy-pyridin-3-yl)-1H-[1,2,3]triazol-4-yl]-methanol]",51.2,> 10200
"COc1ccc(-n2cc(C(O)c3c(C4CC4)sc4cncn34)nn2)c(OC)n1 (racemic) [Example 81, rac-(2-Cyclopropyl-imidazo[5,1-b]thiazol-3-yl)-[1-(2,6-dimethoxy-pyridin-3-yl)-1H-[1,2,3]triazol-4-yl]-methanol]",36.1,> 10200
"CC(C)Oc1ccc(-n2cc(C(O)c3c(C4CC4)sc4cncn34)nn2)cn1 (racemic) [Example 82, rac-(2-Cyclopropyl-imidazo[5,1-b]thiazol-3-yl)-[1-(6-isopropoxy-pyridin-3-yl)-1H-[1,2,3]triazol-4-yl]-methanol]",44.2,> 10200
"OC(c1cn(-c2cnc(OC3CCC3)nc2)nn1)c1c(C2CC2)sc2cncn12 (racemic) [Example 83, rac-[1-(2-Cyclobutoxy-pyrimidin-5-yl)-1H-[1,2,3]triazol-4-yl]-(2-cyclopropyl-imidazo[5,1-b]thiazol-3-yl)-methanol]",10.9,> 10200
"COc1ncc(-n2cc(C(O)c3c(C4CC4)sc4cncn34)nn2)c(OC)n1 (racemic) [Example 84, rac-(2-Cyclopropyl-imidazo[5,1-b]thiazol-3-yl)-[1-(2,4-dimethoxy-pyrimidin-5-yl)-1H-[1,2,3]triazol-4-yl]-methanol]",81.7,> 10200
"OC(c1cn(-c2cnc(OCc3ccccc3)nc2)nn1)c1c(C2CC2)sc2cncn12 (racemic) [Example 85, rac-[1-(2-Benzyloxy-pyrimidin-5-yl)-1H-[1,2,3]triazol-4-yl]-(2-cyclopropyl-imidazo[5,1-b]thiazol-3-yl)-methanol]",11.5,> 10200
"COc1cc(-n2cc(C(O)c3c(C4CC4)sc4cncn34)nn2)c(OC)nn1 (racemic) [Example 86, rac-(2-Cyclopropyl-imidazo[5,1-b]thiazol-3-yl)-[1-(3,6-dimethoxy-pyridazin-4-yl)-1H-[1,2,3]triazol-4-yl]-methanol]",23.1,> 10200
